Measurements: ChEMBL document CHEMBL3885881, “DrugMatrix”

Organism: Rattus norvegicus
Assay: DrugMatrix - Regimen: Daily Repeat
Type: toxicity, organism-based, Sprague-Dawley
Design: regimen Daily Repeat, gender Male, age 6-8 weeks
Settings: in vivo, po, route oral GAVAGE, […]; for ABSOLUTE BASOPHIL / ABSOLUTE EOSINOPHIL / ABSOLUTE LYMPHOCYTE / ABSOLUTE MONOCYTE / ABSOLUTE SEGMENTED NEUTROPHIL / BASOPHIL / EOSINOPHIL / ERYTHROCYTE COUNT / HEMATOCRIT / HEMOGLOBIN / LEUKOCYTE COUNT / LYMPHOCYTE / MEAN CORPUSCULAR HEMOGLOBIN / MEAN CORPUSCULAR HEMOGLOBIN CONCENTRATION / MEAN CORPUSCULAR VOLUME / MONOCYTE / NEUTROPHIL / NUCLEATED RED BLOOD CELLS / PLATELET COUNT: tissue Blood; for ALANINE AMINOTRANSFERASE / ALBUMIN / ALKALINE PHOSPHATASE / ASPARTATE AMINOTRANSFERASE / BLOOD UREA NITROGEN / CARBON DIOXIDE / CHLORIDE / CHOLESTEROL / CREATINE PHOSPHOKINASE / CREATININE / GLUCOSE / LACTATE DEHYDROGENASE / LIPASE / PHOSPHORUS / POTASSIUM / SODIUM / TOTAL BILIRUBIN / TOTAL PROTEIN / URIC ACID: tissue Plasma
[1] = 500 mg/kg, 72 h, dose level Low, time 3 day
[2] = 500 mg/kg, 120 h, dose level Low, time 5 day
[3] = 1100 mg/kg, 72 h, dose level High, time 3 day
[4] = 1100 mg/kg, 120 h, dose level High, time 5 day

CCOC(=O)c1ccc(N)cc1 [BENZOCAINE]
ABSOLUTE BASOPHIL [1]: 0 CELLS/uL
ABSOLUTE EOSINOPHIL [1]: 229 CELLS/uL
ABSOLUTE LYMPHOCYTE [1]: 17082.33 CELLS/uL
ABSOLUTE MONOCYTE [1]: 210.67 CELLS/uL
ABSOLUTE SEGMENTED NEUTROPHIL [1]: 1644.67 CELLS/uL
BASOPHIL [1]: 0%
EOSINOPHIL [1]: 1%
ERYTHROCYTE COUNT [1]: 5.35 x10E6/uL
HEMATOCRIT [1]: 35.4%
HEMOGLOBIN [1]: 14.2 G/DL
LEUKOCYTE COUNT [1]: 19.17 x10E3/uL
LYMPHOCYTE [1]: 89.33%
MEAN CORPUSCULAR HEMOGLOBIN [1]: 26.5 pg
MEAN CORPUSCULAR HEMOGLOBIN CONCENTRATION [1]: 40.13 G/DL
MEAN CORPUSCULAR VOLUME [1]: 66.13 fL
MONOCYTE [1]: 1%
NEUTROPHIL [1]: 8.67%
NUCLEATED RED BLOOD CELLS [1]: 0 /100WBC
PLATELET COUNT [1]: 1441 x10E3/uL
ALANINE AMINOTRANSFERASE [1]: 64 u/L
ALBUMIN [1]: 4.2 G/DL
ALKALINE PHOSPHATASE [1]: 444.67 u/L
ASPARTATE AMINOTRANSFERASE [1]: 108.33 u/L
BLOOD UREA NITROGEN [1]: 9.67 mg/dL
CARBON DIOXIDE [1]: 29 mmol/L
CHLORIDE [1]: 102.33 MEQ/L
CHOLESTEROL [1]: 59.33 mg/dL
CREATINE PHOSPHOKINASE [1]: 648.33 u/L
CREATININE [1]: 0.35 mg/dL
GLUCOSE [1]: 175.67 mg/dL
LACTATE DEHYDROGENASE [1]: 218.67 u/L
LIPASE [1]: 12.33 u/L
PHOSPHORUS [1]: 12.33 mg/dL
POTASSIUM [1]: 6.58 MEQ/L
SODIUM [1]: 144.73 MEQ/L
TOTAL BILIRUBIN [1]: 0.2 mg/dL
TOTAL PROTEIN [1]: 5.7 G/DL
URIC ACID [1]: 1.73 mg/dL
ABSOLUTE BASOPHIL [2]: 0 CELLS/uL
ABSOLUTE EOSINOPHIL [2]: 0 CELLS/uL
ABSOLUTE LYMPHOCYTE [2]: 16058.33 CELLS/uL
ABSOLUTE MONOCYTE [2]: 107.33 CELLS/uL
ABSOLUTE SEGMENTED NEUTROPHIL [2]: 2201 CELLS/uL
BASOPHIL [2]: 0%
EOSINOPHIL [2]: 0%
ERYTHROCYTE COUNT [2]: 4.82 x10E6/uL
HEMATOCRIT [2]: 32.4%
HEMOGLOBIN [2]: 13.2 G/DL
LEUKOCYTE COUNT [2]: 18.37 x10E3/uL
LYMPHOCYTE [2]: 87%
MEAN CORPUSCULAR HEMOGLOBIN [2]: 27.47 pg
MEAN CORPUSCULAR HEMOGLOBIN CONCENTRATION [2]: 40.77 G/DL
MEAN CORPUSCULAR VOLUME [2]: 67.4 fL
MONOCYTE [2]: 0.67%
NEUTROPHIL [2]: 12.33%
NUCLEATED RED BLOOD CELLS [2]: 0.67 /100WBC
PLATELET COUNT [2]: 1368 x10E3/uL
ALANINE AMINOTRANSFERASE [2]: 53.67 u/L
ALBUMIN [2]: 4.13 G/DL
ALKALINE PHOSPHATASE [2]: 386 u/L
ASPARTATE AMINOTRANSFERASE [2]: 98 u/L
BLOOD UREA NITROGEN [2]: 13 mg/dL
CARBON DIOXIDE [2]: 29 mmol/L
CHLORIDE [2]: 104.33 MEQ/L
CHOLESTEROL [2]: 48.33 mg/dL
CREATINE PHOSPHOKINASE [2]: 364.67 u/L
CREATININE [2]: 0.17 mg/dL
GLUCOSE [2]: 150 mg/dL
LACTATE DEHYDROGENASE [2]: 646.67 u/L
LIPASE [2]: 11 u/L
PHOSPHORUS [2]: 10.6 mg/dL
POTASSIUM [2]: 6.6 MEQ/L
SODIUM [2]: 143.27 MEQ/L
TOTAL BILIRUBIN [2]: 0.3 mg/dL
TOTAL PROTEIN [2]: 5.77 G/DL
URIC ACID [2]: 1.63 mg/dL
ABSOLUTE BASOPHIL [3]: 0 CELLS/uL
ABSOLUTE EOSINOPHIL [3]: 55.33 CELLS/uL
ABSOLUTE LYMPHOCYTE [3]: 17429 CELLS/uL
ABSOLUTE MONOCYTE [3]: 386.67 CELLS/uL
ABSOLUTE SEGMENTED NEUTROPHIL [3]: 3095.67 CELLS/uL
BASOPHIL [3]: 0%
EOSINOPHIL [3]: 0.33%
ERYTHROCYTE COUNT [3]: 4.95 x10E6/uL
HEMATOCRIT [3]: 33.3%
HEMOGLOBIN [3]: 13.8 G/DL
LEUKOCYTE COUNT [3]: 20.97 x10E3/uL
LYMPHOCYTE [3]: 81.67%
MEAN CORPUSCULAR HEMOGLOBIN [3]: 27.93 pg
MEAN CORPUSCULAR HEMOGLOBIN CONCENTRATION [3]: 41.43 G/DL
MEAN CORPUSCULAR VOLUME [3]: 67.4 fL
MONOCYTE [3]: 1.33%
NEUTROPHIL [3]: 16.67%
NUCLEATED RED BLOOD CELLS [3]: 0.33 /100WBC
PLATELET COUNT [3]: 1424.33 x10E3/uL
ALANINE AMINOTRANSFERASE [3]: 72 u/L
ALBUMIN [3]: 4.03 G/DL
ALKALINE PHOSPHATASE [3]: 546.33 u/L
ASPARTATE AMINOTRANSFERASE [3]: 93.33 u/L
BLOOD UREA NITROGEN [3]: 10.33 mg/dL
CARBON DIOXIDE [3]: 31 mmol/L
CHLORIDE [3]: 104.33 MEQ/L
CHOLESTEROL [3]: 61 mg/dL
CREATINE PHOSPHOKINASE [3]: 361.67 u/L
CREATININE [3]: 0.14 mg/dL
GLUCOSE [3]: 138.67 mg/dL
LACTATE DEHYDROGENASE [3]: 171 u/L
LIPASE [3]: 11.33 u/L
PHOSPHORUS [3]: 11.13 mg/dL
POTASSIUM [3]: 6.37 MEQ/L
SODIUM [3]: 144.8 MEQ/L
TOTAL BILIRUBIN [3]: 0.3 mg/dL
TOTAL PROTEIN [3]: 5.57 G/DL
URIC ACID [3]: 1.27 mg/dL
ABSOLUTE BASOPHIL [4]: 0 CELLS/uL
ABSOLUTE EOSINOPHIL [4]: 0 CELLS/uL
ABSOLUTE LYMPHOCYTE [4]: 14423.33 CELLS/uL
ABSOLUTE MONOCYTE [4]: 145 CELLS/uL
ABSOLUTE SEGMENTED NEUTROPHIL [4]: 2531.67 CELLS/uL
BASOPHIL [4]: 0%
EOSINOPHIL [4]: 0%
ERYTHROCYTE COUNT [4]: 4.51 x10E6/uL
HEMATOCRIT [4]: 32.4%
HEMOGLOBIN [4]: 13.97 G/DL
LEUKOCYTE COUNT [4]: 17.1 x10E3/uL
LYMPHOCYTE [4]: 84.33%
MEAN CORPUSCULAR HEMOGLOBIN [4]: 31.07 pg
MEAN CORPUSCULAR HEMOGLOBIN CONCENTRATION [4]: 43.13 G/DL
MEAN CORPUSCULAR VOLUME [4]: 71.97 fL
MONOCYTE [4]: 1%
NEUTROPHIL [4]: 14.67%
NUCLEATED RED BLOOD CELLS [4]: 1.33 /100WBC
PLATELET COUNT [4]: 1244.67 x10E3/uL
ALANINE AMINOTRANSFERASE [4]: 56.67 u/L
ALBUMIN [4]: 4.2 G/DL
ALKALINE PHOSPHATASE [4]: 347.67 u/L
ASPARTATE AMINOTRANSFERASE [4]: 84 u/L
BLOOD UREA NITROGEN [4]: 13.33 mg/dL
CARBON DIOXIDE [4]: 32.67 mmol/L
CHLORIDE [4]: 102.33 MEQ/L
CHOLESTEROL [4]: 58 mg/dL
CREATINE PHOSPHOKINASE [4]: 180 u/L
CREATININE [4]: 0.13 mg/dL
GLUCOSE [4]: 145.33 mg/dL
LACTATE DEHYDROGENASE [4]: 146.67 u/L
LIPASE [4]: 11 u/L
PHOSPHORUS [4]: 11.13 mg/dL
POTASSIUM [4]: 6.79 MEQ/L
SODIUM [4]: 143.83 MEQ/L
TOTAL BILIRUBIN [4]: 0.37 mg/dL
TOTAL PROTEIN [4]: 5.9 G/DL
URIC ACID [4]: 1.53 mg/dL
